Laboratory results as given in patent US7223767B2, “Tetrahydroquinazolines and dihydrocyclopentapyrimidines as CRF antagonists” (Roche Palo Alto LLC, priority 2003, dated 2007).
Structures can show the parent of a compound that is named as a salt.

What was measured:
CRF1 receptor = biological target: T1, CRF1 receptor (Homo sapiens, UniProt P34998); assay: CRF1 Receptor Binding Assay (competition binding, IMR-32 cell membranes); details: CRF1 affinity; [125I]Tyr0-ovine CRF, human IMR-32 neuroblastoma cell membranes
T1 construct: Cell membranes are prepared according the method of Dieterich and DeSouza (1996); endogenous in cells; host or cells: IMR-32 human neuroblastoma cells (membranes)
T1 sequence (P34998 24-415): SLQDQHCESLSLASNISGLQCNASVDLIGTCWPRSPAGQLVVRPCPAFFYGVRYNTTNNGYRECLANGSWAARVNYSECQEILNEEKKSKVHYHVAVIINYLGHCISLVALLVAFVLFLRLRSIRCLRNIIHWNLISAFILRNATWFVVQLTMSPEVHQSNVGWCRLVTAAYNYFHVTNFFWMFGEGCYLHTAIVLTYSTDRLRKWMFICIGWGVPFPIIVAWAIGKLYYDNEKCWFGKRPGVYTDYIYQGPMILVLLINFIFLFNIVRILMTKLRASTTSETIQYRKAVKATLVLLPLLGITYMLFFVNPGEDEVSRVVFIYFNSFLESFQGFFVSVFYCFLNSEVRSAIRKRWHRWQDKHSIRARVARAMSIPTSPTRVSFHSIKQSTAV
Description: Human IMR-32 neuroblastoma cells are grown to 80% confluence in MEM medium containing 10% heat-inactivated FBS, 1 mM Sodium Pyruvate, and 0.1 mM nonessential amino acids. Cell membranes are prepared according the method of Dieterich and DeSouza (1996). The cells (˜5E+9) are resuspended in 10 volumes of wash buffer (5 mM Tris HCl, 10 mM MgCl2, 2 mM EGTA, pH 7.4 at RT), homogenized with a Polytron, and then centrifuged at 45,000 G for 20 min at 4° C. The membrane pellets are washed twice with wash buffer (45,000 G for 20 min at 4° C.) and then resuspended (50 mM Tris HCl, 10 mM MgCl2, 2 mM EGTA, pH 7.4 at RT). Protein concentration is determined using Pierce reagents and BSA as standard. Aliquots of 1-1.5 mL are stored at −80° C. until binding assay.
The competition binding assay is performed in a final volume of 250 μl which contains assay buffer (50 mM Tris-HCl, 10 MM MgCl2, 2 mM EGTA, 0.2% BSA, 0.1 mM bacitracin and 100 kIU/mL aprotinin pH 7.2 at R.T.), 0.05 nM [^125I]Tyr^0-ovine CRF (Du Pont New England Nuclear), 50 μg of membrane protein, and test compound at various concentrations. Non-specific binding is determined with 1 μM hCRF. Binding reactions are terminated after 2 hr incubation at 25° C. by filtering through 96-w GF/C filter plate using a Packard Harvester (Filtermate 196). The 96-w filter plate is pre-treated with 0.3% polyethyleneimine and pre-washed with washing buffer (50 mM Tris-HCl, 10 mM MgCl2, 2 mM EGTA, 0.2% BSA, pH 7.2 at 4° C.). Unbound radioactivity is removed by four rapid washes (0.8 ml/well) with wash buffer. The radioactivity is quantified using a Packard TopCount. Data are analyzed using non-linear iterative curve fitting to obtain IC50 and Hill slope values. PKi values are derived from pIC50 values (−log of IC50).

| SMILES | melting point [°C] | IC50 (CRF1 receptor) [nM] |
| --- | --- | --- |
| CCCC1(CCC)CCCc2c(Nc3ccc(Cl)cc3Cl)nc(C)nc21 (as salt: hydrochloride) [Compound 11, (2,4-Dichloro-phenyl)-(2-methyl-8,8-dipropyl-5,6,7,8-tetra-hydro-quinazolin-4-yl)-amine] | 238.3 to 243.9 | – |
| CCCN(CC1CC1)c1nc(C)nc2c1CCCC2c1ccccc1 (stereo not drawn) [Compound 1, Cyclopropylmethyl-(2-methyl-8-phenyl-5,6,7,8-tetra-hydro-quinazolin-4-yl)-propyl-amine] | – | 2820 |
| CCCN(CC1CC1)c1nc(C)nc2c1CCC[C@@]2(C)c1ccccc1 [Compound 2, Cyclopropylmethyl-((S)-2,8-dimethyl-8-phenyl-5,6,7,8-tetra-hydro-quinazolin-4-yl)-propyl-amine] | – | 525 |
| CCCN(CC1CC1)c1nc(C)nc2c1CCCC2c1ccc(Cl)cc1 (stereo not drawn) [Compound 3, [8-(4-Chloro-phenyl)-2-methyl-5,6,7,8-tetrahydro-quina-zolin-4-yl]-cyclopropylmethyl-propyl-amine] | – | 2340 |
| CCCN(CC1CC1)c1nc(C)nc2c1CCCC2(C)c1ccc(Cl)cc1 (stereo not drawn) [Compound 4, [8-(4-chloro-phenyl)-2,8-dimethyl-5,6,7,8-tetra-hydro-quinazolin-4-yl]-cyclopropylmethyl-pro-pyl-amine] | – | 1740 |
| COCCN(CCOC)c1nc(C)nc2c1CCCC2c1ccc(Cl)cc1 (stereo not drawn) [Compound 5, [8-(4-Chloro-phenyl)-2-methyl-5,6,7,8-tetrahydro-quina-zolin-4-yl]-bis-(2-methoxy-ethyl)-amine] | – | 28800 |
| COCCN(CCOC)c1nc(C)nc2c1CCCC2(C)c1ccc(Cl)cc1 (stereo not drawn) [Compound 6, [8-(4-Chloro-phenyl)-2,8-dimethyl-5,6,7,8-tetra-hydro-quinazolin-4-yl]-bis-(2-methoxy-ethyl)-a-mine] | – | 11700 |
| CCCN(CC1CC1)c1nc(C)nc2c1CCC2c1ccc(C)cc1C (stereo not drawn) [Compound 9, Cyclopropylmethyl-[7-(2,4-dimethyl-phenyl)-2-meth-yl-6,7-dihydro-5H-cyclopentapyrimidin-4-yl]-pro-pyl-amine] | – | 1120 |
| CCCN(CC1CC1)c1nc(C)nc2c1CCC2(C)c1ccc(C)cc1C (stereo not drawn) [Compound 10, Cyclopropylmethyl-[7-(2,4-dimethyl-phenyl)-2,7-di-methyl-6,7-dihydro-5H-cyclopentapyrimidin-4-yl]-pro-pyl-amine] | – | 661 |
